Results reported in the NIST ThermoML archive (doi:10.1007/s10765-008-0549-z).
Numbers after ± are expanded uncertainties.

Conditions: Liquid, Hot wire method

COCCOC [1,2-dimethoxyethane]
Conditions | thermal conductivity [W/m/K]
245.46 K, 104.6 kPa | 0.1648 ± 0.0034
245.69 K, 30045 kPa | 0.1742 ± 0.0035
245.95 K, 9806.6 kPa | 0.1669 ± 0.0034
245.96 K, 30103 kPa | 0.1746 ± 0.0036
246.06 K, 5008.2 kPa | 0.1665 ± 0.0034
246.06 K, 20070 kPa | 0.1711 ± 0.0035
246.24 K, 20007 kPa | 0.1706 ± 0.0035
246.49 K, 105.9 kPa | 0.165 ± 0.0034
246.52 K, 5028.5 kPa | 0.1666 ± 0.0034
246.69 K, 10018 kPa | 0.1683 ± 0.0034
246.75 K, 10005 kPa | 0.1682 ± 0.0034
246.79 K, 5010 kPa | 0.1662 ± 0.0034
247.52 K, 103.3 kPa | 0.1647 ± 0.0034
255.91 K, 20016 kPa | 0.1675 ± 0.0034
256.02 K, 102.5 kPa | 0.1606 ± 0.0033
256.02 K, 30007 kPa | 0.1706 ± 0.0035
256.1 K, 10040 kPa | 0.1643 ± 0.0033
256.21 K, 5070.2 kPa | 0.1623 ± 0.0033
256.75 K, 30014 kPa | 0.1707 ± 0.0035
256.81 K, 20002 kPa | 0.1679 ± 0.0034
256.83 K, 10040 kPa | 0.1642 ± 0.0033
256.9 K, 5065.5 kPa | 0.1625 ± 0.0033
256.95 K, 102.5 kPa | 0.161 ± 0.0033
257.48 K, 5064.5 kPa | 0.1625 ± 0.0033
257.56 K, 20022 kPa | 0.1674 ± 0.0034
257.58 K, 102.3 kPa | 0.1607 ± 0.0033
257.62 K, 10048 kPa | 0.1643 ± 0.0033
257.66 K, 30002 kPa | 0.1708 ± 0.0035
266.15 K, 10003 kPa | 0.1617 ± 0.0033
266.18 K, 5017.9 kPa | 0.1601 ± 0.0033
266.19 K, 30009 kPa | 0.1688 ± 0.0034
266.26 K, 101.3 kPa | 0.158 ± 0.0032
266.26 K, 20003 kPa | 0.1654 ± 0.0034
266.32 K, 10011 kPa | 0.1618 ± 0.0033
266.41 K, 100.9 kPa | 0.158 ± 0.0032
266.58 K, 5037.6 kPa | 0.1598 ± 0.0033
266.87 K, 20013 kPa | 0.165 ± 0.0034
266.95 K, 30000 kPa | 0.1684 ± 0.0034
267.11 K, 30013 kPa | 0.1683 ± 0.0034
267.35 K, 20003 kPa | 0.1653 ± 0.0034
267.37 K, 10021 kPa | 0.1617 ± 0.0033
267.5 K, 101.1 kPa | 0.1578 ± 0.0032
267.84 K, 5027 kPa | 0.1598 ± 0.0033
275.68 K, 10024 kPa | 0.1585 ± 0.0032
275.72 K, 5003.3 kPa | 0.1567 ± 0.0032
276.21 K, 20024 kPa | 0.1624 ± 0.0033
276.34 K, 101.8 kPa | 0.1547 ± 0.0032
276.45 K, 30012 kPa | 0.1657 ± 0.0034
276.49 K, 100.9 kPa | 0.1543 ± 0.0032
276.52 K, 20015 kPa | 0.1623 ± 0.0033
276.94 K, 5006 kPa | 0.1567 ± 0.0032
277.11 K, 30008 kPa | 0.1654 ± 0.0034
277.29 K, 10005 kPa | 0.1584 ± 0.0032
277.31 K, 30012 kPa | 0.1653 ± 0.0034
277.53 K, 20015 kPa | 0.1623 ± 0.0033
277.55 K, 5005.5 kPa | 0.1565 ± 0.0032
277.95 K, 10000 kPa | 0.1585 ± 0.0032
278.62 K, 101.1 kPa | 0.1539 ± 0.0031
285.8 K, 10010 kPa | 0.1551 ± 0.0032
286.18 K, 5012.4 kPa | 0.1531 ± 0.0031
286.23 K, 101.5 kPa | 0.1512 ± 0.0031
286.4 K, 30001 kPa | 0.1626 ± 0.0033
286.51 K, 20013 kPa | 0.159 ± 0.0032
286.67 K, 30009 kPa | 0.1625 ± 0.0033
286.8 K, 20011 kPa | 0.159 ± 0.0032
287.06 K, 101.3 kPa | 0.1509 ± 0.0031
287.07 K, 30006 kPa | 0.1621 ± 0.0033
287.28 K, 10001 kPa | 0.1549 ± 0.0032
287.46 K, 5010.5 kPa | 0.153 ± 0.0031
287.68 K, 20035 kPa | 0.1586 ± 0.0032
288.14 K, 10002 kPa | 0.1545 ± 0.0031
288.62 K, 100.9 kPa | 0.1504 ± 0.0031
288.65 K, 5009.1 kPa | 0.1525 ± 0.0031
294.52 K, 10026 kPa | 0.1516 ± 0.0031
294.53 K, 20008 kPa | 0.1566 ± 0.0032
294.55 K, 30012 kPa | 0.1589 ± 0.0033
294.64 K, 10027 kPa | 0.1527 ± 0.0031
294.68 K, 106.8 kPa | 0.1466 ± 0.003
294.68 K, 20036 kPa | 0.1566 ± 0.0032
294.75 K, 104.2 kPa | 0.1463 ± 0.003
294.83 K, 5021.1 kPa | 0.15 ± 0.0031
294.85 K, 10037 kPa | 0.1514 ± 0.0031
294.89 K, 30004 kPa | 0.1609 ± 0.0033
294.98 K, 5020.1 kPa | 0.1495 ± 0.003
295 K, 30018 kPa | 0.1595 ± 0.0032
295.07 K, 5014 kPa | 0.149 ± 0.003
295.11 K, 20026 kPa | 0.1557 ± 0.0032
295.24 K, 20010 kPa | 0.1569 ± 0.0032
295.28 K, 30016 kPa | 0.1598 ± 0.0033
295.32 K, 30006 kPa | 0.16 ± 0.0033
295.36 K, 101.9 kPa | 0.1467 ± 0.003
295.36 K, 20006 kPa | 0.1558 ± 0.0032
295.37 K, 10024 kPa | 0.1515 ± 0.0031
295.38 K, 104.3 kPa | 0.1474 ± 0.003
295.83 K, 10044 kPa | 0.1522 ± 0.0031
296 K, 5027.1 kPa | 0.1498 ± 0.0031
314.6 K, 104.5 kPa | 0.1394 ± 0.0029
314.65 K, 105.6 kPa | 0.1386 ± 0.0029
314.79 K, 30008 kPa | 0.1522 ± 0.0031
314.83 K, 20003 kPa | 0.1491 ± 0.003
314.84 K, 5010.3 kPa | 0.1415 ± 0.0029
314.87 K, 10003 kPa | 0.1443 ± 0.0029
314.9 K, 107.1 kPa | 0.1402 ± 0.0029
314.95 K, 20016 kPa | 0.1476 ± 0.003
315.06 K, 10017 kPa | 0.144 ± 0.0029
315.14 K, 30010 kPa | 0.1529 ± 0.0031
315.17 K, 10013 kPa | 0.1447 ± 0.0029
315.23 K, 5018.6 kPa | 0.1424 ± 0.0029
315.26 K, 30008 kPa | 0.1519 ± 0.0031
315.27 K, 105.4 kPa | 0.1395 ± 0.0028
315.3 K, 20008 kPa | 0.1484 ± 0.003
315.31 K, 20001 kPa | 0.1483 ± 0.003
315.42 K, 10012 kPa | 0.1445 ± 0.0029
315.46 K, 5010.3 kPa | 0.1419 ± 0.0029
315.51 K, 100.6 kPa | 0.1391 ± 0.0028
334.53 K, 10006 kPa | 0.1361 ± 0.0028
334.58 K, 102.1 kPa | 0.132 ± 0.0027
334.58 K, 5005.9 kPa | 0.1342 ± 0.0027
334.65 K, 5011.8 kPa | 0.1347 ± 0.0027
334.69 K, 90 kPa | 0.132 ± 0.0027
334.76 K, 10004 kPa | 0.1366 ± 0.0028
334.94 K, 10015 kPa | 0.1373 ± 0.0028
334.98 K, 5008.9 kPa | 0.1344 ± 0.0027
335.06 K, 101.6 kPa | 0.1322 ± 0.0027
335.31 K, 10008 kPa | 0.1374 ± 0.0028
335.39 K, 5011.5 kPa | 0.1347 ± 0.0027
335.53 K, 105.6 kPa | 0.1314 ± 0.0027
335.59 K, 10015 kPa | 0.1366 ± 0.0028
335.96 K, 5018 kPa | 0.1343 ± 0.0027
336.14 K, 105.6 kPa | 0.1319 ± 0.0027
